Measurements from patent US6743809B2, “Indole Derivatives useful for the treatment of CNS disorders” (H. Lundbeck A/S, priority 2000, dated 2004).

Legend:
[1] = biological target: T1, D4 receptor (Homo sapiens, UniProt P21917); settings: literature report, result in words; cited from earlier work
T1 sequence (P21917 1-419): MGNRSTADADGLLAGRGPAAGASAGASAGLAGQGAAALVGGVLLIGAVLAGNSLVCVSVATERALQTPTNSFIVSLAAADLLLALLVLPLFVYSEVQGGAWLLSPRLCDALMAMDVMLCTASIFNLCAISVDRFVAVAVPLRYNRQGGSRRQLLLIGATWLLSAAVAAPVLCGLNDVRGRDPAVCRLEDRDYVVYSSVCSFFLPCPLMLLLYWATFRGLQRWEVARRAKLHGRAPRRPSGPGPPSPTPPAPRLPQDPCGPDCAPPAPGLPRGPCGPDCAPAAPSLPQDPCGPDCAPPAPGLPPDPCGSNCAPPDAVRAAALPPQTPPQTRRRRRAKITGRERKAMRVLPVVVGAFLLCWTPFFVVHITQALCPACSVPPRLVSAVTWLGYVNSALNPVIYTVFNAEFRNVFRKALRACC

[2] = biological target: T2, human cloned dopamine D4.2 receptors (Homo sapiens, UniProt P21917, DEL265-296); assay: Inhibition of the binding of [3H]YM-09151-2 to human dopamine D4 receptors; settings: 50 nM compound; [3H]YM-09151-2 0.06 nM; membranes of CHO-cells
T2 construct: expressed in transfected cells; host or cells: CHO cells
T2 sequence (P21917 with tags, fused parts or gaps DEL265-296): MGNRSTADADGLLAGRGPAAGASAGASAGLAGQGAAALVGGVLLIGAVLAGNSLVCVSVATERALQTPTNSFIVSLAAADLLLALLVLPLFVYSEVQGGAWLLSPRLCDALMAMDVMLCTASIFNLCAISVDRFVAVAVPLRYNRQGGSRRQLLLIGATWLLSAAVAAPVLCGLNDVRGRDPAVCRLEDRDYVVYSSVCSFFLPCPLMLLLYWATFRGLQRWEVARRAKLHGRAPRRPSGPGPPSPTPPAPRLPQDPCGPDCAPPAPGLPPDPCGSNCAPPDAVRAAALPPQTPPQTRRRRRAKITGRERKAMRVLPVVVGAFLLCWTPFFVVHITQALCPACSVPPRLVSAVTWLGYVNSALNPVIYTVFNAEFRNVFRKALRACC
Experimental: Inhibition of the Binding of [^3H]YM-09151-2 to Human Dopamine D4 Receptors
By this method, the inhibition by drugs of the binding of [^3H]YM-09151-2 (0.06 nM) to membranes of human cloned dopamine D4.2 receptors expressed in CHO-cells is determined in vitro. The method is modified from NEN Life Science Products, Inc., technical data certificate PC2533-10/96.

Structure (SMILES)	inhibition at 0.05 µM [2] [%]	functional activity at D4 receptor [1]
CC(C)Oc1cccnc1N(C)C1CCN(Cc2ccccc2)CC1 [Compound U-101958]	–	partial D4 receptor agonists
CC(=O)Nc1ccc(C)c(CCN2CCC(c3c[nH]c4ccc(F)cc34)CC2)c1 [Compound 3a, 3-(1-{2-[5-(Acetylamino)-2-methylphenyl]ethyl}piperidin-4-yl)-5-fluoro-1H-indole]	83	–
Cc1ccc(NC(=O)CCc2ccccc2)cc1CCN1CCC(c2c[nH]c3ccc(F)cc23)CC1 [Compound 3l, 3-(1-{2-[2-Methyl-5-(3-phenylpropanoylamino)phenyl]ethyl}piperidin-4-yl)-5-fluoro-1H-indole]	74	–
Cc1ccc(NC(=O)c2cccs2)cc1CCN1CCC(c2c[nH]c3ccc(F)cc23)CC1 [Compound 3e, 3-(1-{2-[2-Methyl-5-(thiophen-2-ylmethanoylamino)phenyl]ethyl}piperidin-4-yl)-5-fluoro-1H-indole]	89	–

Now from value to compound, other results behind:

inhibition at 0.05 µM [2] [%]	Structure (SMILES)	functional activity at D4 receptor [1]
81	Cc1ccc(C(=O)Nc2ccc(C)c(CCN3CCC(c4c[nH]c5ccc(F)cc45)CC3)c2)cc1 [Compound 3m, 3-(1-{2-[2-Methyl-5-(4-methylbenzoylamino)phenyl]ethyl}piperidin-4-yl)-5-fluoro-1H-indole]	–
90	Cc1ccc(C(=O)Nc2ccc(C)c(CCN3CCC(c4c[nH]c5c(Cl)cccc45)CC3)c2)cc1 [Compound 3af, 3-(1-{2-[2-Methyl-5-(4-methylbenzoylamino)phenyl]ethyl}piperidin-4-yl)-7-chloro-1H-indole]	–
